Remaining activity data for 4 molecules are collected here from paper PMC7827406, “Structure–Activity Relationship (SAR) Study of Spautin-1 to Entail the Discovery of Novel NEK4 Inhibitors” (International Journal of Molecular Sciences, 2021).

Common to all, as to test: biochemical
The target in one assay is T1, MAPK2(m) (Mus musculus, UniProt P63085).
T1 construct: gene Mapk1
Also noted: Eurofins kinase panel, residual kinase activity (%) at 10 uM relative to DMSO. How it is done: (§1) Eurofins performed a “Full KP Panel [Km ATP], KinaseProfile” which contains 429 radiometric kinase activity assays. The remaining kinase activity (%) was determined after treatment with the compounds at a concentration of 10 µM (Cfr. supporting information). Since we could not confirm the interaction between Spautin-1 analogues and USP13, a kinase screening was performed using a set of four compounds (Spautin-1 and three analogues) to discover off-targets and identify kinases that are potentially responsible for the reduction in cell viability observed in our screen (Table 2). The KINOMEscan from Eurofins was performed (see Table S1). This screen consists of a competitive binding assay in which the DNA-tagged kinase is incubated with one of the compounds in the presence of immobilized active site binding ligands. Binding of the compounds to the kinase hampers the binding of the kinase to the ligands and this inhibition was quantified by qPCR.

A further assay addresses T2, MAPK1(h) (Homo sapiens, UniProt P27361).
T2 construct: gene MAPK3
Further details: Eurofins kinase panel, residual kinase activity (%) at 10 uM relative to DMSO. How it is done:
as §1

The next assay addresses T3, MLCK(h) (Homo sapiens, UniProt Q15746).
T3 construct: gene MYLK
Further details: Eurofins kinase panel, residual kinase activity (%) at 10 uM relative to DMSO. How it is done:
as §1

The target of the next assay is T4, MAPK2(h) (Homo sapiens, UniProt P28482).
T4 construct: gene MAPK1
T4 sequence (P28482 whole entry): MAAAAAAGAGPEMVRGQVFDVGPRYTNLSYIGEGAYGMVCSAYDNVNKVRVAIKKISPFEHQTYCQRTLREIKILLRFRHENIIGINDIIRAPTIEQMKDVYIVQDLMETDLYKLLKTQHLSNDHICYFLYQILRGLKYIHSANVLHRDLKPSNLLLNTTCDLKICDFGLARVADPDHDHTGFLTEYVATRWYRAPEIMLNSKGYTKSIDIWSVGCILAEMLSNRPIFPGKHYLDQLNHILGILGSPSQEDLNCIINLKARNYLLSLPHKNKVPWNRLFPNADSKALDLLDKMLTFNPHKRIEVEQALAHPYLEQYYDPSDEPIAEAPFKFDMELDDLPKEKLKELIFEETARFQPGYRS
Further details: Eurofins kinase panel, residual kinase activity (%) at 10 uM relative to DMSO. How it is done: as §1

A further assay deals with T5, ACTR2(h) (Homo sapiens, UniProt P27037).
T5 construct: gene ACVR2A
T5 sequence (P27037 whole entry): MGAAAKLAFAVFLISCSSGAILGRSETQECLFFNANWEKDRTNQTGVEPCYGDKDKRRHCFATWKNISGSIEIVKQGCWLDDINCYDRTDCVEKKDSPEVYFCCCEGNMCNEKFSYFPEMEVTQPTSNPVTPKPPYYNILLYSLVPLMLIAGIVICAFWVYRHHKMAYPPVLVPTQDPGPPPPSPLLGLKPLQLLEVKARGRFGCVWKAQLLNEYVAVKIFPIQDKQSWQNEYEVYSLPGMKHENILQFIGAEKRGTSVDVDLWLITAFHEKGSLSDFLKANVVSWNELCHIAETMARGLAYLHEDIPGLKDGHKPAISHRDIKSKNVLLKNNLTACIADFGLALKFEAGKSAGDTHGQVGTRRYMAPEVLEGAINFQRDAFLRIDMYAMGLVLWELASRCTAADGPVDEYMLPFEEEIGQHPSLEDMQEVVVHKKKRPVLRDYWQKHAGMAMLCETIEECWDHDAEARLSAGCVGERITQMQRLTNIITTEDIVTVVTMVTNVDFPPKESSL
Also noted: Eurofins kinase panel, residual kinase activity (%) at 10 uM relative to DMSO. How it is done: as §1

In a further assay the target is T6, IKKα(h) (Homo sapiens, UniProt O15111).
T6 construct: gene CHUK
T6 sequence (O15111 1-745): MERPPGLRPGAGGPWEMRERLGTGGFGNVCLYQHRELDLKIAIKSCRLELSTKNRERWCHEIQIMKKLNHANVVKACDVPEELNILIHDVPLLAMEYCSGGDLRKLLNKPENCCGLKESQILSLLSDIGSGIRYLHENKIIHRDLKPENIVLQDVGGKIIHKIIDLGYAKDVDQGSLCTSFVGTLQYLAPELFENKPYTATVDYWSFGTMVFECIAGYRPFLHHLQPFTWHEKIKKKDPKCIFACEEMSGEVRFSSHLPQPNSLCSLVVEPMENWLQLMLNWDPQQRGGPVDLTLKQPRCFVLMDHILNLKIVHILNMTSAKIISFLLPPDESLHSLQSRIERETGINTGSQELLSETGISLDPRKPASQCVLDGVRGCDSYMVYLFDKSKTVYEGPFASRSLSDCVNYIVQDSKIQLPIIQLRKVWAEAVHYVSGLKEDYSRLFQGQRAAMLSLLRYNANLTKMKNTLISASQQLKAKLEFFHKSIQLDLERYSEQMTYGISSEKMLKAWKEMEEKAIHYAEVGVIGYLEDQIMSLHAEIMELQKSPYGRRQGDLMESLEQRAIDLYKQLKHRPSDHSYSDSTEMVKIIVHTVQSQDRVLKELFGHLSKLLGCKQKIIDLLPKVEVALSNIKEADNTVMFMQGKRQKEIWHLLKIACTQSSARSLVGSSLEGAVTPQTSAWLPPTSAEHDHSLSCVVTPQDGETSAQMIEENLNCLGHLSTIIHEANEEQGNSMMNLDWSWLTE
Also noted: Eurofins KinaseProfiler full panel at Km ATP, residual kinase activity (%) relative to DMSO. How it is done: (§2) Eurofins performed a “Full KP Panel [Km ATP], KinaseProfile” which contains 429 radiometric kinase activity assays. The remaining kinase activity (%) was determined after treatment with the compounds at a concentration of 10 µM (Cfr. supporting information). Since we could not confirm the interaction between Spautin-1 analogues and USP13, a kinase screening was performed using a set of four compounds (Spautin-1 and three analogues) to discover off-targets and identify kinases that are potentially responsible for the reduction in cell viability observed in our screen (Table 2). The KINOMEscan from Eurofins was performed (see Table S1). This screen consists of a competitive binding assay in which the DNA-tagged kinase is incubated with one of the compounds in the presence of immobilized active site binding ligands. Binding of the compounds to the kinase hampers the binding of the kinase to the ligands and this inhibition was quantified by qPCR. The residual kinase activity, which represents the percentage of kinase attached to the immobilized ligands, was determined for 428 kinases at a standard screening concentration of 10 µM of the compounds dissolved in DMSO [61].

In another assay the target is T7, ULK3(h) (Homo sapiens, UniProt Q6PHR2).
T7 sequence (Q6PHR2 1-472): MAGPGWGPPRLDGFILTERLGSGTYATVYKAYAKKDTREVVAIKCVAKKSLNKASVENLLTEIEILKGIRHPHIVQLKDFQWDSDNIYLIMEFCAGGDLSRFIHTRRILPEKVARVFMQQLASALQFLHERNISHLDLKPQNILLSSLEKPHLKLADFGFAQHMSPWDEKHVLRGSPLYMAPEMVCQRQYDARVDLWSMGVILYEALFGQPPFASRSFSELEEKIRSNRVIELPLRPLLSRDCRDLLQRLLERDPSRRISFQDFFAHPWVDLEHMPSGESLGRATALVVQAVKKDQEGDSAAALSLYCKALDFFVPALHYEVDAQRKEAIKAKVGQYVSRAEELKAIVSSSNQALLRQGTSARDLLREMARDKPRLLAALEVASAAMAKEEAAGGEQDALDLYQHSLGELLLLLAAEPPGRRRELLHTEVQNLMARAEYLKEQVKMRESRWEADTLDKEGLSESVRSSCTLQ
Also noted: Eurofins KinaseProfiler full panel at Km ATP, residual kinase activity (%) relative to DMSO. How it is done:
as §2

Another assay has as its target T8, CK2α2(h) (Homo sapiens, UniProt P19784).
T8 construct: gene CSNK2A2
Further details: Eurofins KinaseProfiler full panel at Km ATP, residual kinase activity (%) relative to DMSO. How it is done:
as §2

In a further assay the target is CaMKK2(h) (Homo sapiens, UniProt Q96RR4). Also noted: Eurofins KinaseProfiler full panel at Km ATP, residual kinase activity (%) relative to DMSO. How it is done:
as §2

The target in the next assay is MELK(h) (Homo sapiens, UniProt Q14680). Also noted: Eurofins KinaseProfiler full panel at Km ATP, residual kinase activity (%) relative to DMSO. How it is done: as §2
Sequence of MELK(h) (Q14680 whole entry): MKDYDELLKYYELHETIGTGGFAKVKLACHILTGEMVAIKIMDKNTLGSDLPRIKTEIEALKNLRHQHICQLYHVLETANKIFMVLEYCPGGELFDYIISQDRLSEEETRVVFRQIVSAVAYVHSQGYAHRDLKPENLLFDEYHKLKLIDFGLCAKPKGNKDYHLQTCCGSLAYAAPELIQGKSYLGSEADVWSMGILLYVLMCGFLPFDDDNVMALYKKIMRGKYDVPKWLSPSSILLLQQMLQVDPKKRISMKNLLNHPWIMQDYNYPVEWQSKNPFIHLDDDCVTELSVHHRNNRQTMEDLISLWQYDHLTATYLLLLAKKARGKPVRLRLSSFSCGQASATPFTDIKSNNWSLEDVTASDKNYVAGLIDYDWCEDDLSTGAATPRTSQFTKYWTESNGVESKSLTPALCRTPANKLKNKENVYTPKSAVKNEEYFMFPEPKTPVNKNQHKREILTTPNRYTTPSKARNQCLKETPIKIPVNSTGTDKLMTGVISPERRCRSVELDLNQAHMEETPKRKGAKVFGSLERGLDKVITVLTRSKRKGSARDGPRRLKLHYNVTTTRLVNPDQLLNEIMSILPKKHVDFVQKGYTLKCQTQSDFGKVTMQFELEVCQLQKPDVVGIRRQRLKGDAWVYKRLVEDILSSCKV
Where [1] appears, read: read-out: Residual activity (%) 5at.
Setting [2] is: read-out: Residual activity (%) 5ay.
Where [3] appears, read: read-out: Residual activity (%) 5as.
[4] abbreviates: read-out: Residual activity (%) Spautin-1.
Where [5] appears, read: read-out: Residual activity (%) Spautin-1 5aa.

Like-named read-outs stand apart in the source and are kept apart here.

T2 sequence (P27361 whole entry): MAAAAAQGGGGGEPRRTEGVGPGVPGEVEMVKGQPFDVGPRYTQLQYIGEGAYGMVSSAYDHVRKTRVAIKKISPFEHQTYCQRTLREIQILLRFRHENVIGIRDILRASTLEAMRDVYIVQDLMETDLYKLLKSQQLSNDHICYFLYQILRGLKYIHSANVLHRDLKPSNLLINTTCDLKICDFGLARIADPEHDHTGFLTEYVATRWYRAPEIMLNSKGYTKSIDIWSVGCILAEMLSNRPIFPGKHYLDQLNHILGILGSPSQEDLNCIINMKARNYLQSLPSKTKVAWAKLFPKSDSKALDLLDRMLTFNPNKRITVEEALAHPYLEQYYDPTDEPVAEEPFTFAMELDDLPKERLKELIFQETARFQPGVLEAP
T3 sequence (Q15746 whole entry): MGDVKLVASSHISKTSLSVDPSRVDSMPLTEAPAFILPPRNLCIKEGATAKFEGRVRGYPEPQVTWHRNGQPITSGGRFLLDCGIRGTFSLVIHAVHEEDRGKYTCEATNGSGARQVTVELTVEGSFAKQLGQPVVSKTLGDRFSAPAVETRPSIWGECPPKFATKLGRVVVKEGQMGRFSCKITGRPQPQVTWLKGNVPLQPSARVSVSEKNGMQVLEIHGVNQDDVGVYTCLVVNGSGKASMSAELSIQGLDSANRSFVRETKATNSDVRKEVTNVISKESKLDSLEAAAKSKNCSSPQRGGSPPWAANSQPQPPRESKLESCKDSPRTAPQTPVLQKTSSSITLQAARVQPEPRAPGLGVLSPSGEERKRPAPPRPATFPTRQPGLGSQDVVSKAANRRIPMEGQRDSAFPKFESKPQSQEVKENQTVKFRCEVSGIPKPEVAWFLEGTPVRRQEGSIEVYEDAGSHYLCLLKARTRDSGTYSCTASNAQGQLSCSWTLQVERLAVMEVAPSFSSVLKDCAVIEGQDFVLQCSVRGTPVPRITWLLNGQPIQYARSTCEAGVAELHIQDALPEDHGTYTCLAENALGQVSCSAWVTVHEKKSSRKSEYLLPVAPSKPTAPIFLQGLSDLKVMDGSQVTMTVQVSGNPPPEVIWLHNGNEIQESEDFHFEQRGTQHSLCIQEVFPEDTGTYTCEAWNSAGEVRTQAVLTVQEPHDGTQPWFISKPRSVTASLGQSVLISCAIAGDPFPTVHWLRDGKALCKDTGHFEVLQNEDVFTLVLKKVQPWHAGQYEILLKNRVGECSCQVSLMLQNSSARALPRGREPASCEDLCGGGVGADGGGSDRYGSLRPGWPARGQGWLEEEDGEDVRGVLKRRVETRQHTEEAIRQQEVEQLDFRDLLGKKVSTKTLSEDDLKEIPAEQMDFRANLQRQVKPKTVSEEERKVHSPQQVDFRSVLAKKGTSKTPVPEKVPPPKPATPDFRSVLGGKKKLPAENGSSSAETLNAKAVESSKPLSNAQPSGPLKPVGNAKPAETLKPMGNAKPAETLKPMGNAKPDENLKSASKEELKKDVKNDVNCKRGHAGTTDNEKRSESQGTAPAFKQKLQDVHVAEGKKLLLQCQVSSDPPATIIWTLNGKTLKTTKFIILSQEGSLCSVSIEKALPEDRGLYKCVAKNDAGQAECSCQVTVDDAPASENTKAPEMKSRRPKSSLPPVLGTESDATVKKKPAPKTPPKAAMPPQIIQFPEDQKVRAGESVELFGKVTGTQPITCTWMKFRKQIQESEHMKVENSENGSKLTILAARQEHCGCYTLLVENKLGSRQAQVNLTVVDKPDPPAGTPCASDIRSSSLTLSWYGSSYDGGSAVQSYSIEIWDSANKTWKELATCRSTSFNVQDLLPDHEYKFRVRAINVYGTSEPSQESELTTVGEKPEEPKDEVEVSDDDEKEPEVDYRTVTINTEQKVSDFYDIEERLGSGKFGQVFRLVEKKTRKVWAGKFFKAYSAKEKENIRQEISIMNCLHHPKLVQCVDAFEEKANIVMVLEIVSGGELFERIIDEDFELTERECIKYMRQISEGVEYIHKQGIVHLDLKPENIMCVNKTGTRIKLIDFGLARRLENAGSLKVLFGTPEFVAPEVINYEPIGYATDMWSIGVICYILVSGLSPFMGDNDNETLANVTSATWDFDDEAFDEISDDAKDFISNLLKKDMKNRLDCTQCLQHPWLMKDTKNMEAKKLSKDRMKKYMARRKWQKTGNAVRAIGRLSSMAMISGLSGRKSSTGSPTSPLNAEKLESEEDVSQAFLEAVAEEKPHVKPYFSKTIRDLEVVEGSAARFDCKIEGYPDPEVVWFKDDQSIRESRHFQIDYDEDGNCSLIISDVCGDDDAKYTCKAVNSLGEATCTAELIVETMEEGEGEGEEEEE
T8 sequence (P19784 whole entry): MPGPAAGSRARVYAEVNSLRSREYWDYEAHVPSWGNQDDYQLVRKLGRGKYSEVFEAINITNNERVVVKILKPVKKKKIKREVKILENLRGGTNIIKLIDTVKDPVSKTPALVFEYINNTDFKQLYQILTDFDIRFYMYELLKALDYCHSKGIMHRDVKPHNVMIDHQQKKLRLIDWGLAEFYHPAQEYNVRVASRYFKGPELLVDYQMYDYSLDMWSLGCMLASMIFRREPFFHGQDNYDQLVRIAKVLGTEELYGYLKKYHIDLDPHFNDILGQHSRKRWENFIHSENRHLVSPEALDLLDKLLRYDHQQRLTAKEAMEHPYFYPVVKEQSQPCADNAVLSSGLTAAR
Sequence of CaMKK2(h) (Q96RR4 whole entry): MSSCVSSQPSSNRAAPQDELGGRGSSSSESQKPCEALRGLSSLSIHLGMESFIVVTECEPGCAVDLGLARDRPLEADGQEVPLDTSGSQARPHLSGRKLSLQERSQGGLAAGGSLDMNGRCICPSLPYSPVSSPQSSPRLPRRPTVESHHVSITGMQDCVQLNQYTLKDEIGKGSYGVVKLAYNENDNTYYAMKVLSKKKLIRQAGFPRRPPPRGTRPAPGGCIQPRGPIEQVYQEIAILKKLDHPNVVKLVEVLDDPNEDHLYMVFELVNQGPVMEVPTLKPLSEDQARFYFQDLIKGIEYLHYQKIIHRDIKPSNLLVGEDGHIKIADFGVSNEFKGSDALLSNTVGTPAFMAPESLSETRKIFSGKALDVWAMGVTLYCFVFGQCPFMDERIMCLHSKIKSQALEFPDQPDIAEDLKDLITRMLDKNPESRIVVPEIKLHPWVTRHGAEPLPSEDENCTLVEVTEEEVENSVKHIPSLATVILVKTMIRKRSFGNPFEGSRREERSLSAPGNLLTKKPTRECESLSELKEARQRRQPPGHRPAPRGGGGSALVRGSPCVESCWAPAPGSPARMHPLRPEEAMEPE

In the case of `Fc1ccc2ncnc(NCCc3ccc(Cl)cc3)c2c1` [5at, N-[2-(4-Chlorophenyl)Ethyl]-6-Fluoro-4-Quinazolinamine], the remaining activity at 10 µM on MAPK2(m) (setting [1]) came to 91%; on MAPK1(h) (setting [1]), 114%; on MLCK(h) (setting [1]) it was 86%; at MAPK2(h) (setting [1]) it was 83%; on ACTR2(h) (setting [1]), 97%; at IKKα(h) (setting [1]), 91%. The remaining activity at 10 µM on ULK3(h) (setting [1]) stood at 93%; at CK2α2(h) (setting [1]), 86%; at CaMKK2(h) (setting [1]) it was 96%; on MELK(h) (setting [1]), 73%.

For the molecule `COc1ccc2ncnc(Nc3cccc(F)c3)c2c1` [5ay, N-(3-Fluorophenyl)-6-Methoxy-4-Quinazolinamine], the remaining activity at 10 µM amounted to 118% on MAPK2(m) (setting [2]); 84% on MAPK1(h) (setting [2]); 69% on MLCK(h) (setting [2]); 100% at MAPK2(h) (setting [2]); 85% on ACTR2(h) (setting [2]); 86% at IKKα(h) (setting [2]). The remaining activity at 10 µM was 90% at ULK3(h) (setting [2]), 83% on CK2α2(h) (setting [2]), 78% at CaMKK2(h) (setting [2]) and 95% at MELK(h) (setting [2]).

On to `Fc1ccc(CCNc2ncnc3ccc(F)cc23)cc1` [5as, 6-Fluoro-N-[2-(4-Fluorophenyl)Ethyl]-4-Quinazolinamine], for which the remaining activity at 10 µM at MAPK2(m) (setting [3]) amounted to 105%; on MAPK1(h) (setting [3]), 93%; on MLCK(h) (setting [3]), 88%; on MAPK2(h) (setting [3]), 87%; at ACTR2(h) (setting [3]), 83%; at IKKα(h) (setting [3]), 100%. The remaining activity at 10 µM on ULK3(h) (setting [3]) came out at 92%; at CK2α2(h) (setting [3]), 95%; on CaMKK2(h) (setting [3]), 87%; at MELK(h) (setting [3]) it was 90%.

For the molecule `Fc1ccc(CNc2ncnc3ccc(F)cc23)cc1` [5aa, 6-Fluoro-N-(4-fluorobenzyl)-4-Quinazolinamine], the remaining activity at 10 µM at MAPK2(m) (setting [4]) worked out at 104%; on MAPK1(h) (setting [4]), 96%; on MLCK(h) (setting [4]), 83%; at MAPK2(h) (setting [4]), 96%; on ACTR2(h) (setting [4]) it was 92%; at IKKα(h) (setting [5]), 72%. The remaining activity at 10 µM at ULK3(h) (setting [5]) was found to be 96%; at CK2α2(h) (setting [5]), 101%; on CaMKK2(h) (setting [5]), 79%; on MELK(h) (setting [5]), 86%.
